# Test results from patent US20230365577A1, “Photodynamic Therapy and Diagnosis” (RMW CHO Group Limited, priority 2020, published 2023).
# Columns and labels:
# [1] = Singlet oxygen (1O2) production rate; format: physicochemical
# Text: The production of singlet oxygen (^1O2), cellular phototoxicity and light-independent cytotoxicity (“dark toxicity”) of a number of phyllochlorin analogues were compared against chlorin e4 disodium and Talaporfin sodium (mono-L-aspartyl chlorin e6), the active ingredient of Laserphyrin™.
# [2] = test system: SKOV3 ovarian cancer cells; test: Inherent cytotoxicity (dark toxicity) in SKOV3 cells (AlamarBlue viability); format: cell-based, Human; conditions: human, 24 h
# [3] = In vivo toxicity in wild type mice; conditions: intravenous or intraperitoneal injection, 0.5 to 5 mg/kg
# Method: The potential application of compound 6 as a representative phyllochlorin species was explored in vivo. Wild type mice (Balb/C and C57BL/6) received compound 6 by intravenous or intraperitoneal injection, with doses ranging from 0.5 to 5 mg/kg.
# [4] = test system: A549; test: Phototoxicity, pan-cancer panel; format: cell-based; conditions: Homo sapiens, light or radiation study; A549, lung adenocarcinoma
# Method: (§1) To test for phototoxicity, cells incubated with phyllochlorin analogues (0-10 μM in DMSO) had culture media replaced after 24 hours (as above) and were then exposed to a 652 nm laser (Invion) with laser density at 50 mW/cm^2 for 5 mins (total 15 J/cm^2). Following activation, cells were cultured for a further 24 hours. Media was then replaced with fresh media containing AlamarBlue, and % viable cells remaining assessed as above. Controls included cells treated with phyllochlorin analogues but not activated by laser light; cells without phyllochlorin analogue treatment but with laser light; and untreated controls. All measurements were made in quadruplicate.
# (§2) The activity of phyllochlorin analogues against multiple cancer cell types was assessed as above, using compounds 3 and 6 as examples.
# [5] = test system: HEK293; test: Phototoxicity, pan-cancer panel; format: cell-based; conditions: Homo sapiens, light or radiation study; HEK293, embryonic kidney
# Method: as §1, §2
# [6] = test system: HH; test: Phototoxicity, pan-cancer panel; format: cell-based; conditions: Homo sapiens, light or radiation study, T cell lymphoma
# Method: as §1, §2
# [7] = test system: MDA-MB-468; test: Phototoxicity, pan-cancer panel; format: cell-based; conditions: Homo sapiens, light or radiation study; MDA-MB-468, breast adenocarcinoma (triple negative)
# Method: as §1, §2
# [8] = test system: B16F10; test: Phototoxicity, pan-cancer panel; format: cell-based; conditions: Mus musculus, B16-F10, light or radiation study; B16F10, melanoma
# Method: as §1, §2
# [9] = test system: DLD-1; test: Phototoxicity, pan-cancer panel; format: cell-based; conditions: Homo sapiens, light or radiation study; DLD-1, colorectal adenocarcinoma
# Method: as §1, §2
# [10] = test system: LP9; test: Phototoxicity, pan-cancer panel; format: cell-based; conditions: light or radiation study; LP9, immortalised mesothelial cells
# Method: as §1, §2
# [11] = test system: ID8 murine ovarian cancer cells; test: Tumour localisation and retention, model 2 (intraperitoneal ID8 metastatic disease); format: in vivo, C57BL/6 wild type mice
# Method: Model 2 used C57BL/6 wild type mice implanted intraperitoneally with 1×10^6 ID8 murine ovarian cancer cells. Following a 4 week incubation (at which point metastatic peritoneal disease with macroscopically visible tumour deposits was established), mice received compound 6 by either oral gavage (ORAL: 2.5 mg/kg), intravenous injection (IV: 1.0 mg/kg), or intraperitoneal injection (IP: 1.0 mg/kg). Quantitative imaging was performed as above; however, due to the disseminated nature of ovarian cancer, imaging was performed at autopsy, using blue light (400 nm) illumination to visualise red fluorescence associated with compound 6 in tumour deposits.
# [12] = test system: 4T1 orthotopically implanted breast tumours; test: Photodynamic therapy of established breast tumours; format: in vivo, Balb/C wild type mice
# Method: Balb/C wild type mice with established 4T1 orthotopically implanted breast tumours were administered compound 6 by IT injection. At 24 hours post-injection (allowing compound 6 to clear from non-tumour tissues), mice were placed in clear perspex cages and illuminated (whole body) under red (660 nm) light for a period of 20 minutes. Light (660 nm) was delivered at an intensity of 100 mW/cm^2 for 20 mins continuously, to achieve a total light dose of 120 J/cm^2. […]
compound,measurement,setting,value
"C=Cc1c(C)c2cc3nc(c(C)c4cc(C)c(cc5nc(cc1[nH]2)C(C)=C5CC)[nH]4)[C@@H](CCC(=O)N(C)CCCS[C@@H]1O[C@H](CO)[C@@H](O)[C@H](O)[C@H]1O)[C@@H]3C [Compound 6, 3-((7S,8S)-18-ethyl-2,5,8,12,17-pentamethyl-13-vinyl-7H,8H-porphyrin-7-yl)-N-methyl-N-(3-(((2S,3R,4S,5S,6R)-3,4,5-trihydroxy-6-(hydroxymethyl)tetrahydro-2H-pyran-2-yl)thio)propyl)propanamide]",Singlet Oxygen Production (slope) 1O2,[1],1700.0
same,Cellular Toxicity: Dark toxicity IC10,[2],9490 nM
same,Cytotoxicity IC10,[2],9490 nM
same,Adverse toxic events,[3],no adverse toxic events observed at any dose
same,IC90,[4],140 nM
same,IC90,[5],200 nM
same,IC90,[6],30 nM
same,IC90,[7],70 nM
same,IC90,[8],640 nM
same,IC90,[9],330 nM
same,IC90,[10],30 nM
same,Localisation into metastatic nodules,[11]; IP 1.0 mg/kg,rapid and highly selective localisation
same,Retention in tumour following injection,[11]; IV 1.0 mg/kg,at least 24 hours
same,Time of peak tumour distribution,[11]; IV 1.0 mg/kg,4 h
same,Tumour response,"[12]; IT injection plus 660 nm light 120 J/cm2 at 24 hours, after 14 days",regressed to an undetectable level
same,Time to endpoint (tumour size ≥100 mm2),"[12]; compound alone, no laser",≤ 13 days
same,Tumour regrowth,"[12]; compound plus laser, after 3 weeks",no evidence of regrowth
same,Time to regression of established tumours to an undetectable level,"[12]; compound plus laser, n=2/group",≤ 14 days
